From patent publication US7932050B2, “Enzymatic substrates derived from phenoxazinone and their use as developers in detection of microorganisms with peptidase activity” (bioMerieux, priority 2004, dated 2011)

Experiments:
Type in all cases: cell-based
Pseudomonas fluorescens = assay: Detection of β-alanine peptidase activity (example 11), colony coloration; conditions: between 24 and 48 h of incubation; Applicant's collection
Escherichia coli = assay: as above; conditions: between 24 and 48 h of incubation; Applicant's collection
Pseudomonas aeruginosa [1] = assay: as above; conditions: between 24 and 48 h of incubation
Pseudomonas putida = assay: as above; conditions: between 24 and 48 h of incubation; Applicant's collection
[2] = tested on: Burkholderia cepacia LMG 18941; assay: as above; conditions: between 24 and 48 h of incubation; strain LMG 18941
[3] = tested on: Burkholderia Gladioli LGM 6880; assay: as above; conditions: between 24 and 48 h of incubation; strain LGM 6880
Pseudomonas aeruginosa [4] = assay: Detection of β-alanine peptidase activity (example 9), colony coloration; conditions: between 24 and 48 h of incubation, no accession No.
Ralstonia basilensis = conditions: between 24 and 48 h of incubation
[5] = tested on: Acinetobacter calcoaceticus; assay: Detection of β-alanine peptidase activity (example 9), colony coloration; conditions: between 24 and 48 h of incubation
[6] = tested on: Acinetobacter baumannii ATCC 19606; assay: as above; conditions: between 24 and 48 h of incubation; strain ATCC 19606
[7] = tested on: Burkholderia cepacia GIII LMG 18832; assay: as above; conditions: between 24 and 48 h of incubation; strain LMG 18832
[8] = tested on: Pseudomonas fragilis NCIMB 8987; assay: as above; conditions: between 24 and 48 h of incubation; strain NCIMB 8987
[9] = tested on: Burkholderia cepacia GI LMG1222; assay: as above; conditions: between 24 and 48 h of incubation; strain LMG1222
Ralstonia taiwanensis = conditions: between 24 and 48 h of incubation
Pseudomonas maltophilia = assay: Detection of β-alanine peptidase activity (example 9), colony coloration; conditions: between 24 and 48 h of incubation
Salmonella hadar = assay: Detection of L-alanine peptidase activity on Columbia agar containing the substrate; set-up: key to C [head as printed; cells hold growth signs]: the sign ++ signifies very good growth; the sign + signifies good growth of the strain; the sign +/− signifies average growth of the strain; the sign − signifies absence of growth of the strain; conditions: substrate 50 mg/l in Columbia agar; 24 to 48 h at 37° C.
[10] = tested on: Escherichia coli NCTC 10418; assay: as above; set-up: key to C [head as printed; cells hold growth signs]: the sign ++ signifies very good growth; the sign + signifies good growth of the strain; the sign +/− signifies average growth of the strain; the sign − signifies absence of growth of the strain; conditions: substrate 50 mg/l in Columbia agar; 24 to 48 h at 37° C.
[11] = tested on: Listeria monocytogenes NCTC 11994; assay: as above; set-up: key to G [head as printed; cells hold colony color]: I signifies colorless; key to C [head as printed; cells hold growth signs]: the sign ++ signifies very good growth; the sign + signifies good growth of the strain; the sign +/− signifies average growth of the strain; the sign − signifies absence of growth of the strain; conditions: substrate 50 mg/l in Columbia agar; 24 to 48 h at 37° C.
[12] = tested on: Staphylococcus aureus NCTC 6571; assay: as above; set-up: key to G [head as printed; cells hold colony color]: I signifies colorless; key to C [head as printed; cells hold growth signs]: the sign ++ signifies very good growth; the sign + signifies good growth of the strain; the sign +/− signifies average growth of the strain; the sign − signifies absence of growth of the strain; conditions: substrate 50 mg/l in Columbia agar; 24 to 48 h at 37° C.
[13] = tested on: Providencia rettgeri NCTC 7475; assay: as above; set-up: key to C [head as printed; cells hold growth signs]: the sign ++ signifies very good growth; the sign + signifies good growth of the strain; the sign +/− signifies average growth of the strain; the sign − signifies absence of growth of the strain; conditions: substrate 50 mg/l in Columbia agar; 24 to 48 h at 37° C.
[14] = tested on: Klebsiella pneumoniae NCTC 10896; assay: as above; set-up: key to C [head as printed; cells hold growth signs]: the sign ++ signifies very good growth; the sign + signifies good growth of the strain; the sign +/− signifies average growth of the strain; the sign − signifies absence of growth of the strain; conditions: substrate 50 mg/l in Columbia agar; 24 to 48 h at 37° C.
[15] = tested on: Proteus mirabilis NCTC 10975; assay: as above; set-up: key to C [head as printed; cells hold growth signs]: the sign ++ signifies very good growth; the sign + signifies good growth of the strain; the sign +/− signifies average growth of the strain; the sign − signifies absence of growth of the strain; conditions: substrate 50 mg/l in Columbia agar; 24 to 48 h at 37° C.
[16] = tested on: Streptococcus pyogenes NCTC 8306; assay: as above; set-up: key to G [head as printed; cells hold colony color]: I signifies colorless; key to C [head as printed; cells hold growth signs]: the sign ++ signifies very good growth; the sign + signifies good growth of the strain; the sign +/− signifies average growth of the strain; the sign − signifies absence of growth of the strain; conditions: substrate 50 mg/l in Columbia agar; 24 to 48 h at 37° C.
[17] = tested on: Pseudomonas aeruginosa NCTC 10662; assay: as above; set-up: key to C [head as printed; cells hold growth signs]: the sign ++ signifies very good growth; the sign + signifies good growth of the strain; the sign +/− signifies average growth of the strain; the sign − signifies absence of growth of the strain; conditions: substrate 50 mg/l in Columbia agar; 24 to 48 h at 37° C.
[18] = strain of Applicant's collection (r9)
[19] = strain of Applicant's collection (r13)
[20] = first P. aeruginosa strain of table 2 (r6)
[21] = fourth P. aeruginosa strain of table 2 (r12)
[22] = second P. aeruginosa strain of table 2 (r8)
[23] = third P. aeruginosa strain of table 2 (r10)

Compound: Cc1c2nc3ccc(NC(=O)CCN)cc3oc-2c(C)c(=O)c1C.O=C(O)C(F)(F)F [b-ala-TMP, 7-N-(β-Alanyl)amino-1,2,4-trimethylphenoxazin-3-one trifluoroacetate salt]
- coloration (Pseudomonas fluorescens): colorless
- coloration (Escherichia coli): orange
- coloration (Pseudomonas aeruginosa [1]; strain ATCC 9027): pink
- coloration (Pseudomonas aeruginosa [1]; strain ATCC 10145): orangy-
- coloration (Pseudomonas aeruginosa [1]; strain ATCC 27853): pink
- coloration (Pseudomonas aeruginosa [1]; [18]): orangy-
- coloration (Pseudomonas aeruginosa [1]; [19]): colorless
- coloration (Pseudomonas putida): colorless
- coloration [2]: pale pink
- coloration [3]: colorless

Compound: CCCCCc1c2nc3ccc(NC(=O)CCNC(=O)OC(C)(C)C)cc3oc-2cc(=O)c1Cl [Chlorinated beta-alanyl compound, 7-N—(N′-t-butoxycarbonyl-β-alanyl)amino-2-chloro-1-pentylphenoxazin-3-one]
- coloration (Pseudomonas aeruginosa [4]; [20]): purple
- coloration (Pseudomonas aeruginosa [4]; [21]): purple
- coloration (Pseudomonas aeruginosa [4]; [22]): pale purple
- coloration (Pseudomonas aeruginosa [4]; [23]): pale purple
- coloration (Ralstonia basilensis): colorless
- coloration [5]: colorless
- coloration [6]: colorless
- coloration [7]: yellow
- coloration [8]: colorless
- coloration [9]: yellow
- coloration (Ralstonia taiwanensis): colorless
- coloration (Pseudomonas maltophilia): colorless

Compound: CCCCCc1cc(=O)cc2oc3cc(NC(=O)[C@H](C)NC(=O)OC(C)(C)C)ccc3nc1-2 [Nonchlorinated L-alanyl compound, 7-N—(N″-t-butoxycarbonyl-L-alanyl)amino-1-pentylphenoxazin-3-one]
- C [head as printed; cells hold growth signs] (Salmonella hadar): +
- G [head as printed; cells hold colony color] (Salmonella hadar): purple
- C [head as printed; cells hold growth signs] [10]: +
- G [head as printed; cells hold colony color] [10]: purple
- C [head as printed; cells hold growth signs] [11]: −
- G [head as printed; cells hold colony color] [11]: I
- C [head as printed; cells hold growth signs] [12]: −
- G [head as printed; cells hold colony color] [12]: I
- C [head as printed; cells hold growth signs] [13]: +
- G [head as printed; cells hold colony color] [13]: purple
- C [head as printed; cells hold growth signs] [14]: +
- G [head as printed; cells hold colony color] [14]: purple
- C [head as printed; cells hold growth signs] [15]: +
- G [head as printed; cells hold colony color] [15]: purple
- C [head as printed; cells hold growth signs] [16]: −
- G [head as printed; cells hold colony color] [16]: I
- C [head as printed; cells hold growth signs] [17]: +
- G [head as printed; cells hold colony color] [17]: purple

Compound: COC(=O)c1c2oc3cc(NC(=O)CCNC(=O)OC(C)(C)C)ccc3nc-2c(C)c(Cl)c1=O [b-ala-MCMP, methyl 7-N—(N′-t-butoxycarbonyl-β-alanyl)amino-1-methyl-2-chlorophenoxazin-3-one-4-carboxylate]
- coloration (Pseudomonas fluorescens): colorless
- coloration (Escherichia coli): colorless
- coloration (Pseudomonas aeruginosa [1]; strain ATCC 9027): pink-
- coloration (Pseudomonas aeruginosa [1]; strain ATCC 10145): violet
- coloration (Pseudomonas aeruginosa [1]; strain ATCC 27853): violet
- coloration (Pseudomonas aeruginosa [1]; [18]): violet
- coloration (Pseudomonas aeruginosa [1]; [19]): colorless
- coloration (Pseudomonas putida): colorless
- coloration [2]: colorless
- coloration [3]: colorless

Compound: Cc1c2nc3ccc(NC(=O)CCN)cc3oc-2cc(=O)c1C.O=C(O)C(F)(F)F [b-ala-DMP, 7-N-(β-Alanyl)amino-1,2-dimethylphenoxazin-3-one trifluoroacetate salt]
- coloration (Pseudomonas fluorescens): colorless
- coloration (Escherichia coli): orange
- coloration (Pseudomonas aeruginosa [1]; strain ATCC 9027): deep pink
- coloration (Pseudomonas aeruginosa [1]; strain ATCC 10145): deep pink
- coloration (Pseudomonas aeruginosa [1]; strain ATCC 27853): pink
- coloration (Pseudomonas aeruginosa [1]; [18]): deep pink
- coloration (Pseudomonas aeruginosa [1]; [19]): colorless
- coloration (Pseudomonas putida): colorless
- coloration [2]: pale pink
- coloration [3]: colorless

Compound: CCCCCc1c2nc3ccc(NC(=O)[C@H](C)NC(=O)OC(C)(C)C)cc3oc-2cc(=O)c1Cl [Chlorinated L-alanyl compound, 7-N—(N′-t-butoxycarbonyl-L-alanyl)amino-2-chloro-1-pentylphenoxazin-3-one]
- C [head as printed; cells hold growth signs] (Salmonella hadar): +
- G [head as printed; cells hold colony color] (Salmonella hadar): pinl/purple
- C [head as printed; cells hold growth signs] [10]: +
- G [head as printed; cells hold colony color] [10]: pink/purple
- C [head as printed; cells hold growth signs] [11]: +
- G [head as printed; cells hold colony color] [11]: I
- C [head as printed; cells hold growth signs] [12]: +
- G [head as printed; cells hold colony color] [12]: I
- C [head as printed; cells hold growth signs] [13]: +
- G [head as printed; cells hold colony color] [13]: pink/purple
- C [head as printed; cells hold growth signs] [14]: +
- G [head as printed; cells hold colony color] [14]: pink/purple
- C [head as printed; cells hold growth signs] [15]: +
- G [head as printed; cells hold colony color] [15]: pink/purple
- C [head as printed; cells hold growth signs] [16]: +/−
- G [head as printed; cells hold colony color] [16]: I
- C [head as printed; cells hold growth signs] [17]: +
- G [head as printed; cells hold colony color] [17]: pink/purple

Compound: CCCCCc1cc(=O)cc2oc3cc(NC(=O)CCNC(=O)OC(C)(C)C)ccc3nc1-2 [Nonchlorinated beta-alanyl compound, 7-N—(N′-t-butoxycarbonyl-β-alanyl)amino-1-pentylphenoxazin-3-one]
- coloration (Pseudomonas aeruginosa [4]; [20]): purple
- coloration (Pseudomonas aeruginosa [4]; [21]): purple
- coloration (Pseudomonas aeruginosa [4]; [22]): purple
- coloration (Pseudomonas aeruginosa [4]; [23]): purple
- coloration (Ralstonia basilensis): colorless
- coloration [5]: colorless
- coloration [6]: colorless
- coloration [7]: yellow
- coloration [8]: colorless
- coloration [9]: yellow
- coloration (Ralstonia taiwanensis): colorless
- coloration (Pseudomonas maltophilia): colorless
